For orientation: IC50 means the concentration that gives 50% inhibition.

Where two headings read alike, the source gives them in different places. Some results are limits rather than exact numbers.

One assay has as its target mouse ENPP1 (Mus musculus (Mouse), UniProt P06802). As to the kind of experiment: ENPP1 enzyme activity assay using cGAMP as substrate (luciferase detection of AMP). Type of assay: biochemical.
The next assay relates to 4T1-Luc tumors. As to the kind of experiment: 4T1-Luc tumor mouse model (tumor volume, survival).
Another assay has as its system CD14+ PBMCs. As to the kind of experiment: Stimulation of CD14+ PBMCs with extracellular cGAMP (IFNB1 RT-qPCR). It counts as cell-based, human. Conditions: submicromolar soluble cGAMP.
Setting [1] is: ENPP1 enzyme activity, second activity table (titled TABLE 2, Compounds; column without head), read-out: IC50.

Chain of mouse ENPP1 (P06802 85-906): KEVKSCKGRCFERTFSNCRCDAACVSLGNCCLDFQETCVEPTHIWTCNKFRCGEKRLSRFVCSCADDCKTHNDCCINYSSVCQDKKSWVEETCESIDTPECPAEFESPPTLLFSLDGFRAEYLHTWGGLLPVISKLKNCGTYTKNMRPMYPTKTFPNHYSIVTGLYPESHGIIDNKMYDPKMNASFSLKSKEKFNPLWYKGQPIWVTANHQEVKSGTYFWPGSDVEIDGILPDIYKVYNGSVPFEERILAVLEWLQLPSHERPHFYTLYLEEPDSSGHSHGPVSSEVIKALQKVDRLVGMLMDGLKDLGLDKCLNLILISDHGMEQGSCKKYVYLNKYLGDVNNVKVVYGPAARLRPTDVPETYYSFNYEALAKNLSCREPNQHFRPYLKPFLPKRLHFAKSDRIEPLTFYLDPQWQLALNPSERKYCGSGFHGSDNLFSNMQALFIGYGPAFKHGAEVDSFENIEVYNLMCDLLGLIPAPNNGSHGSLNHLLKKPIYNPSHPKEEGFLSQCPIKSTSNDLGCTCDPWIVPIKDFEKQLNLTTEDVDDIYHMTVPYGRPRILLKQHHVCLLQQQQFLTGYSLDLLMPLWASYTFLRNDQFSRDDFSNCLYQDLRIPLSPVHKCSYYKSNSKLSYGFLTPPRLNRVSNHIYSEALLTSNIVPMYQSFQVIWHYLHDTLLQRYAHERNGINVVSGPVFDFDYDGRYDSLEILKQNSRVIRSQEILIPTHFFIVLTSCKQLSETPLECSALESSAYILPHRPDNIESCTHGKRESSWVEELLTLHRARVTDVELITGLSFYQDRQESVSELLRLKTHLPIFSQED

Consider `COc1cc2ncnc(Nc3ccc(CP(=O)(O)O)cc3)c2cc1OC` [Compound 3], for which the IC50 on mouse ENPP1 (ENPP1 enzyme activity, Table 4, read-out: IC50) fell in the range of 50 to 100 nM. On to `COc1cc2ncnc(NCc3ccc(OP(O)(O)=S)cc3)c2cc1OC` [Compound 7], for which the IC50 at mouse ENPP1 was 50 to 100 nM. `COc1ccc2ncc(C#N)c(N3CCC(CCP(=O)(O)O)CC3)c2c1` [Compounds 44]: the half-maximal inhibitory concentration (IC50) at mouse ENPP1 (setting [1]) lay within 50 to 100 nM.

On mouse ENPP1, `COc1cc2ncc(C#N)c(N3CCC(CCOP(O)(O)=S)CC3)c2cc1OC` [Compounds 202] yielded a half-inhibitory concentration (IC50) of 50 to 100 nM. `COc1cccc2c(N3CCC(CCP(=O)(O)O)CC3)c(C#N)c(/C=C\c3cccnc3)nc12` [Compounds 206]: the IC50 at mouse ENPP1 (setting [1]) is over 100 nM. In the case of `Nc1nc2c(ncn2[C@@H]2O[C@@H]3COP(=O)(O)O[C@H]4[C@@H](O)[C@H](n5cnc6c(N)ncnc65)O[C@@H]4COP(=O)(O)O[C@@H]2[C@@H]3O)c(=O)[nH]1` [cGAMP, cyclic guanosine monophosphate-adenosine monophosphate], the “effect over IR treatment” value in the assay on 4T1-Luc tumors (20 Gy IR + intratumoral 10 μg cGAMP alone) is listed as “had no effect over IR treatment”. In addition, the mice cured in the assay on 4T1-Luc tumors (ENPP1−/− 4T1-Luc tumors, 20 Gy IR + intratumoral cGAMP, no anti-CTLA-4) turned out to be 30%. Also, the IFNB1 response entry with CD14+ PBMCs is recorded as “upregulating IFNB1”.

For the origin of these results see patent publication US20250059218A1, “ENPP1 Inhibitors and Methods of Modulating Immune Response” (The Board of Trustees of the Leland Stanford Junior …, priority 2019, published 2025).
